Residues, ends and D or L forms follow the SMILES beside them.
Experiments:
in vivo = settings: rabbit
Method: (§1) Body weights were measured and recorded prior to first dose, approximately weekly (for surviving animals through Week 12), and prior to euthanasia. […] Ophthalmic examinations were performed using the Hackett-McDonald Scoring System on Days 0, 7, 14, 28, 90, 97, 151, and 168. Pharmacokinetic analyses were performed on the vitreous humor concentration data.
(§2) Seven animals received a repeat IVT dose at 2 mg/mL (0.1 mg/eye) on Day 90.
(§3) Vitreous humor, retina, and choroid were collected on days 1, 7, 14, 28, 42, 61, 90, 97, 151, and 168. Eyes were enucleated, snap frozen using liquid nitrogen, and kept on dry ice or frozen at −80° C. until dissected for collection of aqueous humor, vitreous humor, retina, choroid, iris-ciliary body (ICB), and lens.
(§4) To homogenize ocular tissue samples, weighed amounts of control bovine vitreous humor, retina, and choroid were homogenized in USA scientific impact resistant microtubes containing 2.8 mm ceramic beads. Unknown rabbit vitreous humor, retina, and choroid samples were homogenized in USA scientific impact resistant microtubes containing 2.8 mm ceramic beads. Each vitreous humor sample was homogenized after the addition of 5000 microliters (uL) diluent (acetonitrile: water: 1 M hydrochloric acid (70:20:10, v/v/v). Retina tissues were homogenized after the addition of diluent (IPA:NH4OH (1000:1, v/v)) at a 1:5 ratio (parts tissue to parts diluent), and choroid samples were homogenized following addition of diluent at a 1:19 ratio. Tissues were homogenized at 5500 rpm for 3×30 second cycles with 20 second pauses between cycles until homogenized. Choroid went through two runs of homogenization, and retina and vitreous humor samples went through one run of homogenization.
(§5) Preparation of Standards, Unknowns, Blanks, and Blanks with Internal Standard for Vitreous Humor Analysis: • In a polypropylene tube, 10 uL of working calibration standard was added to 90 uL control blank vitreous humor. For blanks and blanks with internal standard, 100 uL of control blank bovine vitreous humor was added. Five hundred (500) uL of acetonitrile: water:1M hydrochloric acid (70:20:10, v/v/v) was added to each standard and 500 uL of acetonitrile: water:1M hydrochloric acid (70:20:10, v/v/v) was added to blanks. Standards and blanks were vortex mixed. One hundred (100) uL of each standard, blank or unknown vitreous humor sample homogenate was then aliquoted. One hundred (100) uL of IPA:NH4OH (1000:1, v/v) was added to each sample. The samples were vortex mixed for 1 minute, then centrifuged for 10 minutes at 4,000 rpm (4° C.). […] Fifty (50.0) uL of acetonitrile:water:1M hydrochloric acid (70:20:10, v/v/v) was added to blank without IS. Two hundred (200) uL of water was added. The samples were then mixed using a multichannel pipette, and supernatant transferred to an autosampler plate for analysis.
(§6) In a 96-well plate, 100 uL of control retina or choroid homogenate was added for calibration samples and unknowns. For blanks and blanks with internal standard, 100 uL of control bovine retina or choroid tissue homogenate was added. […] Twenty (20) uL acetonitrile:water:formic acid (25:75:0.1, v/v/v) was added to each blank without IS sample. Three-hundred (300) uL of IPA:NH4OH (1000:1, v/v) was added to each choroid or retina sample. The samples were then vortex mixed for 5 minutes. The samples were allowed to set for 15 minutes, vortex mixed for an additional minute, and centrifuged for 10 minutes at 4,000 rpm (4° C.).
(§7) Three-hundred-fifty (350) uL of each sample was then aliquoted to a 96-well plate. The samples were dried with nitrogen at 35° C.

[1] = Ocular tissue concentration of ONL1204 after intravitreal injection in rabbit eye (LC-MS/MS); settings: 0.1 mg/eye
Method: as §1, §2, §3, §4, §5, §6, §7

[2] = tested on: retinal pigment epithelial cell death; experiment: Sodium iodate (NaIO3) challenge study, duration of protection, fluorescein angiography lesion area; settings: rabbit
Method: NaIO3 solution: • Challenge Article: NaIO3 • Administration Route: IV • Frequency of Administration: Day 4 (day 7 endpoint), 14 (day 17 endpoint), 28 (day 31 endpoint), 59 (day 61 endpoint), or 78 (day 81 endpoint (rechallenged group)). • Solution: 20 mg/ml in 0.9% Injectable Saline • Dose: 17 or 18 mg/kg body weight
Test System: • Species: Rabbit • Expected Age: Animals were between 3 and 4 months of age • Expected Body Range: Approximately 2.0 Kg, Identification Animals were individually • housed and identified via cage card and ear ID and/or ear tattoo. • Experimental History: Purpose-bred and experimentally naïve at the onset of the study
Intravitreal Injection: • On Day 0, eyes were anesthetized with proparacaine and pupils dilated with tropicamide. Animals were anesthetized with isoflurane vapors to effect. A few drops of Betadine were placed on the eye and then rinsed with ophthalmic eye wash. A clean speculum was placed in the eye (rinsed in Betadine and sterile saline) and the temporal sclera was marked with calipers 3.5 mm from the corneal border. […] In order to reduce the potential for reflux of the test article the needle remained in the vitreous for at least 10 seconds following injection. No reflux was noted on the dosing record.
Model Induction: • A 20 mg/ml solution of NaIO3 was prepared in 0.9% injectable saline aliquoted into 4 batches and frozen at −20° C. For Groups 1-8, 1 batch of NaIO3 was thawed prior to injection. Groups 9-10 were added after the Study was underway therefore a new solution of 20 mg/ml NaIO3 was prepared in 0.9% injectable saline and frozen at −20° C. and thawed prior to injection. Test article and NaIO3 were injected into the left ear.
Animals were weighed and anesthetized with isoflurane vapors to effect. The left ear was shaved and swabbed with 10% alcohol prior to injection. An indwelling catheter was placed in the left marginal ear vein and flushed with 0.9% injectable saline. […]
Data Analysis: • The area of RPE depigmentation is reported as a unitless value provided by the ImageJ software. […] The resulting area was then measured.

[3] = minipig, in vivo
Method: Seven animals received a repeat IVT dose at 2 mg/mL (0.1 mg/eye) on Day 90. […] Vitreous humor, retina, and choroid were collected on days 1, 7, 14, 28, and 88.

Structure (SMILES): CC[C@H](C)[C@H](NC(=O)[C@H](Cc1ccc(O)cc1)NC(=O)[C@H](CC(N)=O)NC(=O)[C@@H](NC(=O)[C@H](C)NC(=O)CNC(=O)[C@H](CC(C)C)NC(=O)[C@H](Cc1ccc(O)cc1)NC(=O)[C@@H](NC(=O)[C@H](Cc1cnc[nH]1)NC(=O)[C@@H](N)Cc1cnc[nH]1)[C@@H](C)CC)C(C)C)C(=O)N[C@@H](Cc1ccc(O)cc1)C(N)=O [ONL1204] (H-HHIYLGAVNYIY-NH2)
- half-life (in vivo): 280 days
- tissue level at time at 4032 h ([1]; retina): 8.4 ng/g
- tissue level at time at 24 h ([1]; retina, Conc. of ONL1204 Retina, single IVT 0.1 mg/eye, Day 1, LLOQ 3.00 ng/g): 12.7 ng/g
- tissue level at time at 168 h ([1]; retina, Conc. of ONL1204 Retina, single IVT 0.1 mg/eye, Day 7, LLOQ 3.00 ng/g): 85.2 ng/g
- tissue level at time at 336 h ([1]; retina, Conc. of ONL1204 Retina, single IVT 0.1 mg/eye, Day 14, LLOQ 3.00 ng/g): 5.95 ng/g
- half-life ([1]; vitreous humor, other: intravitreal injection): 279 days
- lesion size vs negative controls and vs 25 ug ([2]; 100 ug per eye IVT on Day 0, NaIO3 challenge Day 14): significantly smaller lesion size
- lesion size vs negative control animals and vs 25 ug ([2]; 100 ug per eye IVT on Day 0, NaIO3 challenge Day 28): significantly smaller lesion size
- mean lesion size across challenge time points ([2]; 25 or 100 ug per eye IVT on Day 0, NaIO3 challenge Days 4 to 59): substantive reduction
- detection in the vitreous humor across all time points analyzed [3]: detected in the vitreous humor across all time points analyzed
